Source: PubChem BioAssay (NCI)
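Results reflect a 48-hour exposure of cells in 96-well plates to compound at five concentrations. Here, GI50 denotes the concentration required for 50% inhibition of growth. Definition used: TGI = concentration required for complete inhibition of growth.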

How the values were obtained:
Assay in all cases: NCI anticancer screen, dose series, 48 h; in the data active = GI50 below about 0.43 µM; inactive = the rest
[1] = tested on: NCI-H226 lung
[2] = tested on: CAKI-1 renal
[3] = tested on: TK-10 renal
[4] = tested on: M14 melanoma
[5] = tested on: RPMI-8226 leukemia
[6] = tested on: HOP-62 NSCLC
[7] = tested on: PC-3 prostate
[8] = tested on: SK-OV-3 ovarian
[9] = tested on: HCT-116 colon
[10] = tested on: SF-268 CNS
[11] = tested on: SF-295 CNS
[12] = tested on: MDA-MB-231 breast
[13] = tested on: CCRF-CEM leukemia
[14] = tested on: SF-539 CNS
[15] = tested on: T-47D breast
[16] = tested on: HL-60(TB) leukemia
[17] = tested on: HT29 colon
[18] = tested on: OVCAR-3 ovarian
[19] = tested on: LOX IMVI melanoma
[20] = tested on: SR leukemia
[21] = tested on: HCC-2998 colon
[22] = tested on: SNB-19 CNS
[23] = tested on: NCI/ADR-RES ovarian
[24] = tested on: SW-620 colon
[25] = tested on: A498 renal
[26] = tested on: HOP-92 NSCLC
[27] = tested on: ACHN renal
[28] = tested on: SNB-75 CNS
[29] = tested on: KM12 colon
[30] = tested on: NCI-H460 lung
[31] = tested on: HS 578T breast
[32] = tested on: U251 CNS
[33] = tested on: SK-MEL-5 melanoma
[34] = tested on: UACC-62 melanoma
[35] = tested on: OVCAR-5 ovarian
[36] = tested on: MALME-3M melanoma
[37] = tested on: 786-0 renal
[38] = tested on: K-562 leukemia
[39] = tested on: EKVX NSCLC
[40] = tested on: IGROV1 ovarian
[41] = tested on: SN12C renal
[42] = tested on: UACC-257 melanoma
[43] = tested on: UO-31 renal
[44] = tested on: SK-MEL-28 melanoma
[45] = tested on: OVCAR-8 ovarian
[46] = tested on: HCT-15 colon
[47] = tested on: A549 NSCLC
[48] = tested on: MOLT-4 leukemia
[49] = tested on: NCI-H23 lung
[50] = tested on: DU-145 prostate
[51] = tested on: NCI-H522 lung
[52] = tested on: OVCAR-4 ovarian
[53] = tested on: SK-MEL-2 melanoma
[54] = tested on: MCF7 breast
[55] = tested on: COLO 205 colon
[56] = tested on: BT-549 breast

O=C(N/N=C/c1cccs1)c1[nH]c2ccc(Br)cc2c1-c1ccccc1
> 100000 nM: TGI [1] | TGI [2] | TGI [3] | TGI [4] | TGI [7] | TGI [8] | TGI [9] | TGI [10] | TGI [13] | TGI [15] | TGI [20] | TGI [22] | TGI [24] | TGI [25] | TGI [26] | TGI [29] | TGI [31] | TGI [32] | TGI [34] | TGI [35] | TGI [36] | TGI [37] | TGI [38] | TGI [39] | TGI [40] | TGI [42] | TGI [43] | TGI [44] | TGI [47] | TGI [48] | TGI [49] | TGI [50] | TGI [52] | TGI [53]
687 nM: TGI [12]
358 nM: TGI [16]
> 82900 nM: TGI [27]
115 nM: TGI [14]
inactive: GI50 [3] 5740 nM | GI50 [15] 8840 nM | GI50 [25] > 83800 nM | GI50 [26] 1120 nM | GI50 [39] 2200 nM | GI50 [44] 612 nM
80.9 nM: TGI [51]
> 51200 nM: TGI [41]
3220 nM: TGI [30]
> 72900 nM: TGI [18]
320 nM: TGI [55]
474 nM: TGI [56]
active: GI50 [1] 240 nM | GI50 [2] 153 nM | GI50 [4] 69.9 nM | GI50 [5] 54.2 nM | GI50 [6] 150 nM | GI50 [7] 224 nM | GI50 [8] 345 nM | GI50 [9] 34.5 nM | GI50 [10] 404 nM | GI50 [11] 39.2 nM | GI50 [12] 128 nM | GI50 [13] 61.9 nM | GI50 [14] 28.3 nM | GI50 [16] 86.8 nM | GI50 [17] 36.8 nM | GI50 [18] 63.7 nM | GI50 [19] 34.7 nM | GI50 [20] 41.2 nM | GI50 [21] 142 nM | GI50 [22] 124 nM | GI50 [23] 39.2 nM | GI50 [24] 40.5 nM | GI50 [27] 103 nM | GI50 [28] 226 nM | GI50 [29] 152 nM | GI50 [30] 65.7 nM | GI50 [31] 65.7 nM | GI50 [32] 74.6 nM | GI50 [33] 63.8 nM | GI50 [34] 51.6 nM | GI50 [35] 109 nM | GI50 [36] 179 nM | GI50 [37] 186 nM | GI50 [38] 36.7 nM | GI50 [40] 81.8 nM | GI50 [41] 72.8 nM | GI50 [42] 297 nM | GI50 [43] 120 nM | GI50 [45] 44.2 nM | GI50 [46] 41.8 nM | GI50 [47] 125 nM | GI50 [48] 152 nM | GI50 [49] 88.3 nM | GI50 [50] 63 nM | GI50 [51] 24.2 nM | GI50 [52] 340 nM | GI50 [53] 150 nM | GI50 [54] 37.4 nM | GI50 [55] 152 nM | GI50 [56] 97.6 nM
> 76500 nM: TGI [5]
43300 nM: TGI [21]
1570 nM: TGI [17]
> 35500 nM: TGI [54]
39600 nM: TGI [11]
> 57200 nM: TGI [46]
> 93400 nM: TGI [6]
22800 nM: TGI [19]
8490 nM: TGI [28]
230 nM: TGI [33]
